How the values were obtained:
[1] = tested on: lung graft (cardiac arrest donor lungs); test: Left-lung transplantation model with cardiac arrest donor lungs; pulmonary function parameters over 6 hours after transplantation; type: in vivo, adult mongrel dogs
Source text: The lung preserving effect of the lung graft preservative composition of this invention in the transplantation of cardiac arrest donor lungs was experimentally evaluated.
[Test substance] L-Ascorbyl DL-α-tocopheryl phosphate potassium (abbreviation: EPC-K) dissolved in modified Euro-Collins solution ^1)
[Method] The left-lung transplantation model was constructed in adult mongrel dogs and used. The donor was brought to cardiac standstill by intravenous administration of potassium chloride solution and allowed to stand at room temperature for 2 hours. Then, while Group I (n=3) was perfused with Euro-Collins solution, an organ preservative which is commonly used in lung transplantation, Group II (n=3) was perfused with the lung graft preservative composition of this invention, followed by preservation at 4° C. for 12 hours. After the lung was transplanted into the recipient, the right pulmonary artery and right main branchus were ligated and the pulmonary function parameters were determined over a period of 6 hours.

Acute toxicity LD50 = test: Acute toxicity LD50; set-up: species or system rats; conditions: rat, in vivo

**Q.** What does the source list for `Cc1c(C)c2c(c(C)c1OP(=O)(O)OC1=C(O)[C@@H]([C@@H](O)CO)OC1=O)CCC(C)(CCCC(C)CCCC(C)CCCC(C)C)O2` (mixture of isomers) [EPC-K, L-Ascorbyl DL-α-tocopheryl phosphate potassium]?
**A.** arterial blood carbon dioxide partial pressure (PaCO2) ([1]; 5 hours after lung transplantation, preserved at 4° C. for 12 hours, n=3): 32.4±20.9 mmHg; arterial blood oxygen partial pressure (PaO2) ([1]; 6 hours after lung transplantation, donor lung 2 h at room temperature after cardiac standstill, preserved at 4° C. for 12 hours, n=3): 460±94 mmHg; extravascular lung water (EVLW), indicator of pulmonary edema ([1]; FIG. 3, vs. Euro-Collins solution (control)): effective in inhibiting edema; pulmonary vascular resistance (PVR) ([1]; FIG. 5, vs. Euro-Collins solution (control)): inhibits the increase of pulmonary vascular resistance; pulmonary arterial pressure (PAP) ([1]; FIG. 6, vs. Euro-Collins solution (control)): inhibits pulmonary edema without increasing pulmonary vascular resistance; cardiac output (CO) ([1]; FIG. 7, vs. Euro-Collins solution (control)): exerts no adverse influence on the heart; pulmonary blood shunt fraction ([1]; after 1 and 2 hours, FIG. 4, vs. Euro-Collins solution (control)): pulmonary blood shunt inhibitory effect which is significant after 1 and 2 hours; arterial blood carbon dioxide partial pressure (PaCO2), effect in words ([1]; after 5 hours, vs. Group I (Euro-Collins solution), FIG. 2): remarkably effective; various parameters of pulmonary function ([1]; after blood reperfusion): very favorable effects on various parameters of pulmonary function; pulmonary blood shunt fraction, other time-points ([1]; time-points other than 1 and 2 hours, FIG. 4): This inhibitory effect was also noted at other time-points; arterial blood oxygen partial pressure (PaO2), other time-points ([1]; time-points other than 6 hours, vs. Group I (Euro-Collins solution), FIG. 1): Results in Favor of Group II were obtained at other time-points, too; LD50 (Acute toxicity LD50; iv, i.v. (rats)): ≥ 100 mg/kg; LD50 (Acute toxicity LD50; po, p.o. (rats)): ≥ 5000 mg/kg
